According to article PMC7403315, “Cyclic peptide FXII inhibitor provides safe anticoagulation in a thrombosis model and in artificial lungs” (Nature Communications, 2020):
Several values for one entry are separate records, joined by “and”; a condition that tells them apart may be missing. Equal values may be shown once. Read-outs that look alike come from different tables or passages of the source. Starred links: 1 amine or outer side, 2 acyl side, 3 side chain; linkers in the order of their positions; H or OH if unused. Positions of bridges follow the written chain, without caps; N, C: chain ends. Non-standard residues stand in square brackets, D forms with d. Residues, ends and D or L forms follow the SMILES beside them. TATA = O=C(CC[*:1])N1CN(C(=O)CC[*:2])CN(C(=O)CC[*:3])C1; Phe(4-F) = N[C@@H](Cc1ccc(F)cc1)C(=O)O; β3hR = N=C(N)NCCC[C@H](N)CC(=O)O

Experiments:
[1] = Plasma stability assay (residual FXIIa inhibitory activity after plasma incubation); assay type: in vitro ADME, human; conditions: for Residual activity of inhibitor: human plasma 37 °C; for half-life at 10 μM: human, plasma
Protocol: Peptide (2 μl of 2 mM in H2O) was added to 398 μl of citrated human plasma (Innovative Research) to obtain a final peptide concentration of 10 μM. The mixture was incubated in a water bath at 37 °C. At different time points (0, 0.5, 1, 2, 4, 8, 12, 24, 48, and 96 h), samples of 30 μl were removed, diluted to 200 μl with aqueous buffer (10 mM Tris-HCl, pH 7.4, 150 mM NaCl, 10 mM MgCl2, 1 mM CaCl2), and incubated for 20 min at 65 °C to inactivate plasma proteases. The peptide/plasma samples were stored at −20 °C until the residual inhibitory activity of the peptides was measured in a FXIIa inhibition assay. […] IC50 values were derived from the fitted curve using an equation described in the Supplementary Methods. Residual inhibition in % was calculated using the equation IC50,0h/IC50,xh*100, wherein IC50,0h is the functional strength of the inhibitor at time point 0 and IC50,xh the functional strength of the inhibitor after one of the different plasma incubation periods mentioned above.

[2] = Pharmacokinetic study in pigs (plasma concentration by LC-MS); assay type: in vivo, pig
Protocol: Swiss large white pigs, both sexes, 3–4 months old (30 ± 5 kg) were anesthetized and prepared following procedures used to study myocardial ischemia/reperfusion injury. In this procedure, the ACT is monitored and 2500 IU of heparin are injected when ACT values fall below 180 s. Pigs were injected intravenously with 4 mg kg^−1 of FXII900 dissolved in 1 ml PBS, pH 7.4. […] The concentration of FXII900 in the plasma samples was determined by LC-MS as described below.
(§1) The concentration of FXII900 in the plasma samples was quantified based on peak intensities of total ion current (TIC) chromatograms acquired by LC-MS (LCMS-2020, Shimadzu). To 15 μl of plasma sample, 1 μM of internal standard peptide and 5 μl of 6 M guanidinium hydrochloride solution were added and mixed. Plasma proteins were precipitated by the addition of 400 µl of ice cold ethanol (99.9% [v/v] EtOH, 0.1% [v/v] TFA) and incubated on ice for one hour. Precipitate was removed by centrifugation (9000 × g, 20 min, 4 °C) and the supernatant dried by centrifugal evaporation under vacuum. Dried samples were dissolved by sequentially adding 2 μl of DMSO and 18 μl of H2O containing 0.1% (v/v) CHOOH and analyzed by LC-MS. The samples were analyzed using an analytical C18 column (Phenomenex C18 Kinetex column, 50 × 2.1 mm, 2.6 µm, 100 Å) and a linear gradient of 5–30% solvent B (MeCN, 0.05% [v/v] CHOOH) in solvent A (H2O, 0.05% [v/v] CHOOH) in 4.5 min at a flow of 1 ml per min. The mass was measured on a single quadrupole mass spectrometer in positive ion mode using electrospray ionization. Peptides were quantified based on the absolute intensities of the detected mass peaks (M^3+ and M^4+).

[3] = Pharmacokinetic study in rabbits (plasma concentration by LC-MS); assay type: in vivo, rabbit
Protocol: The pharmacokinetic properties of FXII900 applied intravenously were determined as follows. Female New Zealand White rabbits (10–20 weeks old) were injected with 3.7 mg kg^−1 FXII900 dissolved in 1 ml PBS, pH 7.4 via the ear vein. […] The concentration of FXII900 in the plasma samples was determined by LC-MS as described below. The pharmacokinetic properties of FXII900 applied subcutaneously were determined as follows. Female New Zealand White rabbits (2.5–2.9 kg) were injected subcutaneously over the shoulders with 3.7 mg kg^−1 of FXII900 dissolved in 1 ml PBS pH 7.4. […] The plasma was stored at −80 °C. The concentration of FXII900 in the plasma samples was determined by LC-MS as described below.
as §1

[4] = Plasma degradation assay (LC-MS); assay type: in vitro ADME, mouse; conditions: 37 °C
Protocol: Plasma stability and peptide cleavage sites were assessed by incubating the bicyclic peptides in mouse plasma and analyzing the products with an LC-MS system (LCMS-2020, Shimadzu). Peptide (2 μl of 2 mM in H2O) was added to 48 μl of citrated mouse plasma (Innovative Research) to obtain a final peptide concentration of 80 μM. The mixture was incubated in a water bath at 37 °C. At different time points (0, 15, 24, 72, 96, 120, and 144 h), samples of 5 μl were removed, mixed with 5 μl of 6 M guanidinium hydrochloride, and incubated for 30 min at RT. Plasma proteins were precipitated by incubation with 200 μl of ice cold EtOH and 0.1% (v/v) formic acid for 30 min and centrifuged at 9000 × g for 20 min at 4 °C. […] The residue was dissolved in 40 µl of deionized water containing 0.1% (v/v) CHOOH and analyzed by LC-MS. The samples were analyzed using an analytical C18 column (Phenomenex C18 Kinetex column, 50 × 2.1 mm, 2.6 μm, 100 Å) and a linear gradient of 5–35% solvent B (MeCN, 0.05% [v/v] CHOOH) in solvent A (H2O, 0.05% [v/v] CHOOH) in 5.5 min at a flow of 1 ml per min. The masses of the intact peptide and degradation products were measured on a single quadrupole mass spectrometer in positive ion mode using electrospray ionization. Peptides were quantified based on the absolute intensities of the detected mass peaks (M^3+ and M^4+).

[5] = female, New Zealand White, rabbit, plasma, intravenous, 3.7 mg kg-1

For `CC(C)C[C@@H]1NC(=O)[C@H](CCC(N)=O)NC(=O)[C@H](Cc2c[nH]cn2)NC(=O)[C@@H]2CSCCC(=O)N3CN(CN(C3)C(=O)CCSC[C@H](NC(=O)[C@@H](CO)NC(=O)[C@H](N)CCCNC(=N)N)C(=O)N[C@@H](Cc3ccc(F)cc3)C(=O)N[C@@H](CCCNC(=N)N)C(=O)N[C@@H](CC(C)C)C(=O)N3CCC[C@H]3C(=O)N2)C(=O)CCSC[C@@H](C(N)=O)NC(=O)C[C@H](CCCNC(=N)N)NC1=O` [FXII900] (H-[dR][dS]C[Phe(4-F)]RLPCHQL[β3hR]C-NH2; linker 3-8-13 via TATA), the “Residual activity of inhibitor” value ([1]; incubation time 0 h) was 100%, the “Residual activity of inhibitor” value ([1]; incubation time 1 h) was 95.4017% and 101.157% and the “Residual activity of inhibitor” value ([1]; incubation time 2 h) was 110.888% and 102.799%. The “Residual activity of inhibitor” value ([1]; incubation time 4 h) was 107.121% and 93.1543%, the “Residual activity of inhibitor” value ([1]; incubation time 8 h) was 88.5873% and 105.225% and the “Residual activity of inhibitor” value ([1]; incubation time 12 h) was 112.249% and 90.2639%. The “Residual activity of inhibitor” value ([1]; incubation time 24 h) was 92.7385% and 98.9596%, the “Residual activity of inhibitor” value ([1]; incubation time 48 h) was 82.5714% and 71.5934% and the “Residual activity of inhibitor” value ([1]; incubation time 96 h) was 52.5% and 56.04%. The half-life at 10 μM ([1]; 37 °C, remaining FXIIa inhibitory activity, read-out: half-life in human plasma (converted)) was 128 h, the half-life at 10 μM ([1]; t1/2 in plasma) was greater than 120 h and the clearance ([2]; both sexes, Swiss large white, pig, plasma, intravenous, 4 mg kg^−1, read-out: clearance rate (CL)) was 11.8 ± 1.8 mL/min/kg. For the same compound, the Cmax ([2]; both sexes, Swiss large white, pig, plasma, intravenous, 4 mg kg^−1, read-out: maximal concentration) was roughly 7000 nM, the half-life ([2]; both sexes, Swiss large white, pig, plasma, intravenous, 4 mg kg^−1, read-out: t1/2 (t1/2 β)) was 36 ± 5 min and the Vd ([2]; both sexes, Swiss large white, pig, plasma, intravenous, 4 mg kg^−1, read-out: volume of distribution (VD)) was 0.61 ± 0.14 L/kg. For the same compound, the level at time molar at 4 min ([2]; both sexes, Swiss large white, pig, plasma, iv, 4 mg/kg, intravenous administration, 4 min, individual pigs and analyses, read-out: Plasma conc.) was 7470 nM, the level at time molar at […] ([2]; both sexes, Swiss large white, pig, plasma, iv, 4 mg/kg, intravenous administration, 15 min, individual pigs and analyses, read-out: Plasma conc.) was 2710 nM and the level at time molar at 16 min ([2]; both sexes, Swiss large white, pig, plasma, iv, 4 mg/kg, intravenous administration, 16 min, individual pigs and analyses, read-out: Plasma conc.) was 3720 nM. For the same compound, the level at time molar at 35 min ([2]; both sexes, Swiss large white, pig, plasma, iv, 4 mg/kg, intravenous administration, 35 min, individual pigs and analyses, read-out: Plasma conc.) was 1290 nM, the level at time molar at 0.6 h ([2]; both sexes, Swiss large white, pig, plasma, iv, 4 mg/kg, intravenous administration, 36 min, individual pigs and analyses, read-out: Plasma conc.) was 1780 nM and the level at time molar at 65 min ([2]; both sexes, Swiss large white, pig, plasma, iv, 4 mg/kg, intravenous administration, 65 min, individual pigs and analyses, read-out: Plasma conc.) was 692 nM. For the same compound, the level at time molar at 1.1 h ([2]; both sexes, Swiss large white, pig, plasma, iv, 4 mg/kg, intravenous administration, 66 min, individual pigs and analyses, read-out: Plasma conc.) was 799 nM, the level at time molar at 2 h ([2]; both sexes, Swiss large white, pig, plasma, iv, 4 mg/kg, intravenous administration, 120 min, individual pigs and analyses, read-out: Plasma conc.) was 278 nM and the “Plasma conc.” value ([2]; intravenous administration, 4 min, individual pigs and analyses) was 7458 nM and 7475 nM. The “Plasma conc.” value ([2]; intravenous administration, 35 min, individual pigs and analyses) was 1282 nM, the Vd [3, 5] was 0.28 ± 0.05 L/kg and the clearance [3, 5] was 16.1 ± 1 mL/min/kg. For the same compound, the half-life ([3]; female, New Zealand White, rabbit, plasma, intravenous, 3.7 mg kg^−1, read-out: elimination half-life (t1/2 β)) was 12 ± 2 min, the level at time molar at 2 min ([3]; female, New Zealand White, rabbit, plasma, iv, 3.7 mg/kg, intravenous administration, 2 min, individual rabbits and analyses, read-out: Plasma conc.) was 5510 nM and the level at time molar at 5 min ([3]; female, New Zealand White, rabbit, plasma, iv, 3.7 mg/kg, intravenous administration, 5 min, individual rabbits and analyses, read-out: Plasma conc.) was 2610 nM. It also gave a level at time molar at 10 min ([3]; female, New Zealand White, rabbit, plasma, iv, 3.7 mg/kg, intravenous administration, 10 min, individual rabbits and analyses, read-out: Plasma conc.) of 2250 nM, a level at time molar at 20 min ([3]; female, New Zealand White, rabbit, plasma, iv, 3.7 mg/kg, intravenous administration, 20 min, individual rabbits and analyses, read-out: Plasma conc.) of 1260 nM and a level at time molar at 40 min ([3]; female, New Zealand White, rabbit, plasma, iv, 3.7 mg/kg, intravenous administration, 40 min, individual rabbits and analyses, read-out: Plasma conc.) of 503 nM. The level at time molar at 40 min ([3]; female, New Zealand White, rabbit, plasma, sc, 3.7 mg/kg, subcutaneous administration, 40 min, individual rabbits and analyses, read-out: Plasma conc.) was 254 nM, the “Plasma conc.” value ([3]; intravenous administration, 5 min, individual rabbits and analyses) was 2596 nM and the “Plasma conc.” value ([3]; intravenous administration, 10 min, individual rabbits and analyses) was 2079 nM. For the same compound, the “Plasma conc.” value ([3]; intravenous administration, 20 min, individual rabbits and analyses) was 1683 nM and 1119 nM, the “Plasma conc.” value ([3]; intravenous administration, 40 min, individual rabbits and analyses) was 313.9 nM and the “Plasma conc.” value ([3]; subcutaneous administration, 10 min, individual rabbits and analyses) was 237.6 nM. For the same compound, the “Plasma conc.” value ([3]; subcutaneous administration, 160 min, individual rabbits and analyses) was -5.09 nM and the “degradation products by mass spectrometric analysis of plasma samples” value [4] was “no degradation products”.
